GI50 and TGI data for 46 compounds are collected here from PubChem BioAssay (NCI).

This assay deals with MDA-MB-468 breast. Briefly: NCI tumour cell line growth inhibition, 48 h.

Several values for one entry are separate records, joined by “and”; a condition that tells them apart may be missing. Equal entries are not always repeated.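 Five concentrations, 48 hours, 96-well plates. At the GI50, growth is halved. TGI: concentration producing complete growth inhibition.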

Consider `COC(=O)C(=O)CC(=O)CCn1ncc(Cl)c(Cl)c1=O`, for which the GI50 was 7010 nM and the TGI came out at 22500 nM.
For `CN=C(N)N/N=C(\c1ccccc1)c1ccc(Br)cc1`, the GI50 is 275 nM and the TGI was found to be 1080 nM.
For `NC(N)=N/N=C(/c1ccccc1)c1ccc(F)cc1`, in that order: 220 nM and 2460 nM.
On the same counts, the results for `Brc1cccc(-c2cc(-c3ccc4c(c3)OCCO4)[nH]n2)c1` are 5600 nM and 33500 nM.
On the same counts, the results for `COc1ccc(-c2nn(-c3cccc(Cl)c3)cc2C2CC(c3ccccc3)=NN2C(C)=O)cc1` (configuration not stated) are 16300 nM and over 100000 nM.
In the case of `O=C(CSc1nc2ccc([N+](=O)[O-])cc2[nH]1)Nc1ccc(F)c(Cl)c1`, the GI50 was 1170 nM and the TGI is 5070 nM.
For `CN1CCN(CC#Cc2cccc(C(=O)c3cnn(-c4ccc(F)cc4)c3N)c2)CC1`, in that order: over 25000 nM and over 25000 nM.
Turning to `C#Cc1nc(C(=O)NCCC(=O)Nc2ccc(NC(=O)c3ccc(/C=C/C(=O)c4nccn4C)cc3)cc2)cs1`, the GI50 was 891 nM and the TGI was found to be 2170 nM.
For `CNC(=O)c1ccccc1CC1(O)c2ccccc2Oc2ccccc21`, in that order: 3550 nM and 20500 nM.
Take `CN1CCN(Cc2ccc(C(=O)Nc3cncc(C#Cc4cnc(N)c5ccccc45)c3)cc2C(F)(F)F)CC1`: the GI50 was 1770 nM and the TGI amounted to 3650 nM.
For `Nc1n[nH]c2ccc([C@@H]3Nc4ccc5[nH]ncc5c4[C@H]4[C@H]5CCC(C5)[C@H]43)cc12`, in that order: 249 nM and 1420 nM.
With `Cc1[nH]c(/C=C2\C(=O)Nc3ccc(S(=O)(=O)Cc4c(Cl)cccc4Cl)cc32)c(C)c1C(=O)N1CCC[C@@H]1CN1CCCC1`, the GI50 was 1520 nM and the TGI is 2940 nM.
On the same counts, the results for `Fc1cccc(COc2ccc(Nc3ncncc3C#Cc3ccccc3)cc2Cl)c1` are 8770 nM and over 25000 nM.
Regarding `CCn1c(-c2nonc2N)nc2c(C#CCN)ncc(OCCCN)c21`, the GI50 is over 25000 nM and the TGI is over 25000 nM.
As for `Cc1cc([C@@H](C)Nc2ccccc2C(=O)O)c2nc(N3CCOCC3)cc(=O)n2c1`, the GI50 is 2210 nM and the TGI was over 10000 nM.
On the same counts, the results for `Oc1ccccc1/C=N/Nc1ccc2ccccc2n1` are 2600 nM and 14800 nM.
Consider `Clc1ccccc1C(c1ccccc1)(c1ccccc1)n1ccnc1`, for which the GI50 was 1770 nM and the TGI came out at 6210 nM.
Regarding `C=C1C(=O)O[C@H]2[C@H]1CC/C(CNC(=O)c1c[nH]c3ccc(F)cc13)=C\CC[C@@]1(C)O[C@@H]21`, the GI50 was 658 nM and the TGI worked out at 2060 nM.
With `CC(C)(C)c1cc(O)c(O)c(C(C)(C)C)c1`, the GI50 is 2140 nM and the TGI came out at 4770 nM.
On the same counts, the results for `CCn1c(SCC(=O)Nc2cccc(C(=O)/C=C/c3cc(OC)c(OC)c(OC)c3)c2)nc2ccccc2c1=O` are 4220 nM and 40200 nM.
On the same counts, the results for `COc1ccc(C(=S)N2CCN(c3cccc(Cl)c3)CC2)cc1` are 32300 nM and over 100000 nM.
On the same counts, the results for `COC1(C(=O)N2Cc3nc(Cl)nc(N[C@H](C)c4cc(N)cc(C(F)(F)F)c4)c3C2)CCOCC1` are 4440 nM and 40100 nM.
For the compound `COc1cc2c3c(cccc3c1)C(=O)N(CCN1CCCC1)C2=O`, the GI50 was 1320 nM and the TGI turned out to be 3700 nM.
For the compound `COc1cc2ncn(-c3cc(OCc4ccccc4Cl)c(C(N)=O)s3)c2cc1OC`, the GI50 was 49.9 nM and the TGI was found to be 429 nM.
Regarding `CCCCCCCCCCCCCC(=S)NCCCC[C@H](NC(=O)OCc1ccccc1)C(=O)Nc1ccccc1`, the GI50 is 2690 nM and the TGI is over 100000 nM.
Take `CCC(C)C1NC(=O)c2nc(oc2-c2ccccc2)-c2csc(n2)-c2csc(n2)-c2nc(oc2C)-c2coc(n2)CNC(=O)C(C(C)CC)NC1=O` (configuration not stated): the GI50 was 30 nM and the TGI amounted to 101 nM.
In the case of `CC(=O)Nc1cccc(-n2c(=O)n(C3CC3)c(=O)c3c(Nc4ccc(I)cc4F)n(C)c(=O)c(C)c32)c1`, the GI50 was 2820 nM and > 10000 nM; the TGI is 23600 nM and > 10000 nM.
Turning to `O=C(Nc1nc2ccccc2s1)OCC(F)(F)F`, the GI50 is over 100000 nM and the TGI was over 100000 nM.
`Cc1nn(-c2ccc(F)cc2)c2ncnc(Nc3ccc(NC(=O)Nc4ccc(Cl)c(C(F)(F)F)c4)cc3)c12`: the GI50 is 1800 nM and the TGI worked out at 4540 nM.
As for `COc1ccccc1NC1=C(Cl)C(=O)c2nc(C)ccc2C1=O`, the GI50 is 1520 nM and the TGI is 3060 nM.
Regarding `O=c1cc(-c2cccc(F)c2)[nH]c2cc3c(cc12)OCO3`, the GI50 was 10800 nM and the TGI was found to be 45200 nM.
For the compound `COc1c(C2CC(=O)Nc3c2cnn3Cc2ccco2)cc2c(c1OC)OCO2` (configuration not stated), the GI50 was 318 nM and the TGI is over 100000 nM.
For `Cc1ccn2c3c(c(C(=O)O)c2c1)C(=O)c1ccccc1C3=O`, in that order: 17300 nM and over 100000 nM.
Regarding `COc1ccc(C(=O)Nc2ncc(Cc3ccc(Cl)cc3)s2)cc1`, the GI50 is 37.8 nM and the TGI was 17500 nM.
For `O=C(Nc1cccc(-n2ccc3c(NC(=O)c4ccccc4)nccc32)c1)c1cccc(C(F)(F)F)c1`, the GI50 is 29.5 nM and the TGI stood at 1540 nM.
For `CCN1CCN(c2nc(NCCCNc3ccnc4cc(Cl)ccc34)c3ccccc3n2)CC1`, in that order: 1620 nM and 3610 nM.
For `Cc1cc2nc3c4cc(Cl)ccc4n(CCN(C)C)c3nc2cc1C`, in that order: 1410 nM and 3580 nM.
In the case of `CC1(C)N=C(N)N=C(N)N1c1ccc(CCCCc2ccc(S(=O)(=O)F)cc2)cc1`, the GI50 is 539 nM and the TGI amounted to 9330 nM.
On the same counts, the results for `N#CC(=C1SCS1)[N+](=O)[O-]` are 249 nM and 846 nM.
For `C=CC(=O)N[C@H]1C=C(C)c2c(-c3cnc4ccccc4c3)c3c(N)ncnc3n2C1`, in that order: 26.5 nM and 485 nM.
Regarding `COc1cccc(/C=C/C(=O)c2cc3c(N)c(C(=O)Nc4ccccc4C)sc3nc2C)c1`, the GI50 was 887 nM and the TGI came to 2040 nM.
For `Cc1ccc2c(C(C[N+](=O)[O-])c3cccs3)c(-c3ccccc3)[nH]c2c1` (configuration not stated), in that order: 820 nM and 3020 nM.
For `CN(C)CC(=O)N1CCC(c2ccc(NC(=O)c3ncc(C#N)[nH]3)c(C3=CCCCC3)c2)CC1`, the GI50 is 4860 nM and the TGI is 18500 nM.
For `COc1cc(/C=C\[N+](=O)[O-])ccc1O`, in that order: 1690 nM and 3500 nM.
For `O=C(NNc1nc2c(F)cccc2n2cccc12)c1cnccn1`, in that order: 535 nM and 2170 nM.
Turning to `C[C@@H]1CC[C@@H]2[C@@H]1[C@H](OC(=O)/C=C/c1ccccc1)[C@]1(c3ccccc3)C[C@@H](OC(=O)CO)[C@@]2(C)O1`, the GI50 was 13600 nM and the TGI was found to be 29000 nM.
